These results are taken from patent US20220363686A1 (AiCuris GmbH & Co. KG, priority 2018, published 2022).

One data set has as its system HBV. Nature of the data set: Determination of HBV DNA from the supernatants of HepAD38 cells (anti-HBV activity). It counts as cell-based, hepatitis B virus. Conditions: Hepatitis B virus, HePAD38, 144 h, HBV DNA in HepAD38 supernatant, day 6, qPCR; read-out: Cell Activity. The method in brief: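 HepAD38 cells (60,000/well) seeded in tetracycline-free medium to induce HBV, treated with half-log serial compound dilutions for 6 days at 37 °C. HBV DNA purified from filtered supernatant and quantified by real-time PCR against HBV plasmid standards; EC50 from relative copy numbers by non-linear regression.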

A short description of data set [1]: Cell viability assay (AlamarBlue). As to conditions: human, HepAD38 cells.
Data set [2] deals with HBV core protein (C-terminal truncated core protein containing 149 amino acids of the N-terminal assembly domain) (UniProt P03146). Nature of the data set: Biochemical capsid assembly assay (fluorescence quenching). Conditions: read-out: Assembly Activity; BODIPY-FL labelled core protein, assembly started with NaCl, read after 6 min. Set-up: rows headed: Assembly Activity; other: BODIPY-FL labelled core protein, assembly started with NaCl, read after 6 min. An outline of the steps:
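N-terminal assembly domain (residues 1–149) plus C-terminal Cys150, E. coli-expressed, BODIPY-FL-maleimide labelled, used at 1.0–2.0 μM in 50 mM HEPES pH 7.5 with 0.5% DMSO. Assembly started with NaCl ([…]); fluorescence quenching (ex 477/em 525 nm) read after 6 min. 8-point compound series; EC50 by non-linear regression.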

Chain of HBV core protein (C-terminal truncated core protein containing 149 amino acids of the N-terminal assembly domain) (P03146 whole entry, the tested form may be a part): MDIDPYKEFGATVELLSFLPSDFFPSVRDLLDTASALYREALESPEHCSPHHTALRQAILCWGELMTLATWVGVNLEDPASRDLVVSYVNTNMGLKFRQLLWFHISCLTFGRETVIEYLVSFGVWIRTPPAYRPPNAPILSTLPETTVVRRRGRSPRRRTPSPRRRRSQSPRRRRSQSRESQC

Take `O=C(NC1(C(F)(F)F)CCC1)c1cnn2c1CN(C(=O)c1cc3ccccc3[nH]1)CC2` [Example 106, 5-(1H-indole-2-carbonyl)-N-[1-(trifluoromethyl)cyclobutyl]-4H,5H,6H,7H-pyrazolo[1,5-a]pyrazine-3-carboxamide]: the EC50 with HBV is below 1 µM. Besides, in data set [1], the CC50 at 6 days was above 10 µM. Further, the IC50 in data set [2] was below 5 µM.

In the case of `Cc1cc(F)cc2[nH]c(C(=O)N3CCn4ncc(C(=O)N5CCCOCC56CC6)c4C3)cc12` [Example 107, 4-[5-(6-fluoro-4-methyl-1H-indole-2-carbonyl)-4H,5H,6H,7H-pyrazolo[1,5-a]pyrazine-3-carbonyl]-8-oxa-4-azaspiro[2.6]nonane], the EC50 in the data set on HBV was below 1 µM. This molecule showed a CC50 at 6 days in data set [1] above 10 µM. In addition, the IC50 in data set [2] was below 5 µM.

Turning to `Cc1c(F)ccc2[nH]c(C(=O)N3CCn4ncc(C(=O)N5CCCOCC56CC6)c4C3)cc12` [Example 108, 4-[5-(5-fluoro-4-methyl-1H-indole-2-carbonyl)-4H,5H,6H,7H-pyrazolo[1,5-a]pyrazine-3-carbonyl]-8-oxa-4-azaspiro[2.6]nonane], the EC50 in the data set on HBV was below 1 µM. Besides, in data set [1], the 50% cytotoxic concentration (CC50) at 6 days was above 10 µM. Also, the IC50 in data set [2] is below 5 µM.

On to `O=C(c1cc2c(F)c(F)ccc2[nH]1)N1CCn2ncc(C(=O)N3CCCOCC34CC4)c2C1` [Example 109, 4-[5-(4,5-difluoro-1H-indole-2-carbonyl)-4H,5H,6H,7H-pyrazolo[1,5-a]pyrazine-3-carbonyl]-8-oxa-4-azaspiro[2.6]nonane], for which, in the data set on HBV, the EC50 was below 1 µM. Further, the CC50 at 6 days in data set [1] was above 10 µM. The IC50 in data set [2] was below 5 µM.

Take `O=C(c1cc2c(Cl)cccc2[nH]1)N1CCn2ncc(C(=O)N3CCCOCC34CC4)c2C1` [Example 110, 4-[5-(4-chloro-1H-indole-2-carbonyl)-4H,5H,6H,7H-pyrazolo[1,5-a]pyrazine-3-carbonyl]-8-oxa-4-azaspiro[2.6]nonane]: the EC50 with HBV is below 1 µM. In data set [1], this molecule showed a CC50 at 6 days above 10 µM. For the same molecule, the IC50 in data set [2] was below 5 µM.

Turning to `O=C(c1cc2cc(Cl)c(F)cc2[nH]1)N1CCn2ncc(C(=O)N3CCCOCC34CC4)c2C1` [Example 111, 4-[5-(5-chloro-6-fluoro-1H-indole-2-carbonyl)-4H,5H,6H,7H-pyrazolo[1,5-a]pyrazine-3-carbonyl]-8-oxa-4-azaspiro[2.6]nonane], the EC50 with HBV was below 1 µM. The same molecule gave a CC50 at 6 days in data set [1] above 10 µM. For the same molecule, in data set [2], the IC50 is below 5 µM.

On to `Cc1cc(F)cc2[nH]c(C(=O)N3CCn4ncc(C(=O)N[C@H](C)C(F)(F)F)c4C3)cc12` [Example 112, 5-(6-fluoro-4-methyl-1H-indole-2-carbonyl)-N-[(2R)-1,1,1-trifluoropropan-2-yl]-4H,5H,6H,7H-pyrazolo[1,5-a]pyrazine-3-carboxamide], for which, in the data set on HBV, the EC50 was below 1 µM. The 50% cytotoxic concentration (CC50) at 6 days in data set [1] was above 10 µM. Besides, the IC50 in data set [2] is below 5 µM.

As to `Cc1c(F)ccc2[nH]c(C(=O)N3CCn4ncc(C(=O)N[C@H](C)C(F)(F)F)c4C3)cc12` [Example 113, 5-(5-fluoro-4-methyl-1H-indole-2-carbonyl)-N-[(2R)-1,1,1-trifluoropropan-2-yl]-4H,5H,6H,7H-pyrazolol[1,5-a]pyrazine-3-carboxamide], the EC50 with HBV is below 1 µM. The same molecule gave a CC50 at 6 days in data set [1] above 10 µM. In addition, the IC50 in data set [2] was below 5 µM.

In the case of `C[C@@H](NC(=O)c1cnn2c1CN(C(=O)c1cc3c(F)c(F)ccc3[nH]1)CC2)C(F)(F)F` [Example 114, 5-(4,5-difluoro-1H-indole-2-carbonyl)-N-[(2R)-1,1,1-trifluoropropan-2-yl]-4H,5H,6H,7H-pyrazolo[1,5-a]pyrazine-3-carboxamide], the EC50 in the data set with HBV is below 1 µM. In addition, in data set [1], the CC50 at 6 days is above 10 µM. In addition, in data set [2], the IC50 was below 5 µM.

With `C[C@@H](NC(=O)c1cnn2c1CN(C(=O)c1cc3c(Cl)cccc3[nH]1)CC2)C(F)(F)F` [Example 115, 5-(4-chloro-1H-indole-2-carbonyl)-N-[(2R)-1,1,1-trifluoropropan-2-yl]-4H,5H,6H,7H-pyrazolo[1,5-a]pyrazine-3-carboxamide], in the data set on HBV, the EC50 was below 1 µM. Besides, the CC50 at 6 days in data set [1] is above 10 µM. For the same molecule, the IC50 in data set [2] is below 5 µM.

Regarding `C[C@@H](NC(=O)c1cnn2c1CN(C(=O)c1cc3cc(Cl)c(F)cc3[nH]1)CC2)C(F)(F)F` [Example 116, 5-(5-chloro-6-fluoro-1H-indole-2-carbonyl)-N-[(2R)-1,1,1-trifluoropropan-2-yl]-4H,5H,6H,7H-pyrazolo[1,5-a]pyrazine-3-carboxamide], in the data set with HBV, the EC50 is below 1 µM. In data set [1], this molecule yielded a CC50 at 6 days above 10 µM. In data set [2], the IC50 is below 5 µM.

`O=C(c1cc2cc(F)c(Cl)cc2[nH]1)N1CCn2ncc(C(=O)N3CCC(O)CC34CC4)c2C1` (stereo not drawn) [Example 117, 4-[5-(6-chloro-5-fluoro-1H-indole-2-carbonyl)-4H,5H,6H,7H-pyrazolo[1,5-a]pyrazine-3-carbonyl]-4-azaspiro[2.5]octan-7-ol]: the EC50 with HBV is below 1 µM. The CC50 at 6 days in data set [1] is above 10 µM. Moreover, the IC50 in data set [2] was below 5 µM.

Take `O=C(c1cc2c(Cl)cccc2[nH]1)N1CCn2ncc(C(=O)N3CCC(O)CC34CC4)c2C1` (stereo not drawn) [Example 118, 4-[5-(4-chloro-1H-indole-2-carbonyl)-4H,5H,6H,7H-pyrazolo[1,5-a]pyrazine-3-carbonyl]-4-azaspiro[2.5]octan-7-ol]: in the data set with HBV, the EC50 is below 1 µM. In data set [1], this molecule gave a 50% cytotoxic concentration (CC50) at 6 days above 10 µM. In addition, in data set [2], the IC50 was below 5 µM.

For `O=C(c1cc2c(F)c(F)ccc2[nH]1)N1CCn2ncc(C(=O)N3CCC(O)CC34CC4)c2C1` (stereo not drawn) [Example 119, 4-[5-(4,5-difluoro-1H-indole-2-carbonyl)-4H,5H,6H,7H-pyrazolo[1,5-a]pyrazine-3-carbonyl]-4-azaspiro[2.5]octan-7-ol], the EC50 in the data set with HBV was below 1 µM. Further, the CC50 at 6 days in data set [1] was above 10 µM. In addition, the IC50 in data set [2] was below 5 µM.

Consider `Cc1c(F)ccc2[nH]c(C(=O)N3CCn4ncc(C(=O)N5CCC(O)CC56CC6)c4C3)cc12` (stereo not drawn) [Example 120, 4-[5-(5-fluoro-4-methyl-1H-indole-2-carbonyl)-4H,5H,6H,7H-pyrazolo[1,5-a]pyrazine-3-carbonyl]-4-azaspiro[2.5]octan-7-ol], for which, in the data set on HBV, the EC50 is below 1 µM. The 50% cytotoxic concentration (CC50) at 6 days in data set [1] is above 10 µM. Moreover, the IC50 in data set [2] was below 5 µM.

With `Cc1cc(F)cc2[nH]c(C(=O)N3CCn4ncc(C(=O)N5CCC(O)CC56CC6)c4C3)cc12` (stereo not drawn) [Example 121, 4-[5-(6-fluoro-4-methyl-1H-indole-2-carbonyl)-4H,5H,6H,7H-pyrazolo[1,5-a]pyrazine-3-carbonyl]-4-azaspiro[2.5]octan-7-ol], the EC50 with HBV was below 1 µM. Besides, the CC50 at 6 days in data set [1] was above 10 µM. Also, the IC50 in data set [2] was below 5 µM.

As for `O=C(c1cc2ccccc2[nH]1)N1CCn2ncc(C(=O)N3CCC(F)(F)C3)c2C1` [Example 122, 2-[3-(3,3-difluoropyrrolidine-1-carbonyl)-4H,5H,6H,7H-pyrazolo[1,5-a]pyrazine-5-carbonyl]-1H-indole], the EC50 with HBV was below 1 µM. This molecule also came in with a CC50 at 6 days in data set [1] above 10 µM. Moreover, the IC50 in data set [2] is below 5 µM.

For the molecule `O=C(NC1(CCOC(F)F)CCC1)c1cnn2c1CN(C(=O)c1cc3ccccc3[nH]1)CC2` [Example 123, N-{1-[2-(difluoromethoxy)ethyl]cyclobutyl}-5-(1H-indole-2-carbonyl)-4H,5H,6H,7H-pyrazolo[1,5-a]pyrazine-3-carboxamide], the EC50 in the data set on HBV is below 1 µM. In data set [1], this molecule gave a half-maximal cytotoxic concentration (CC50) at 6 days above 10 µM. Further, in data set [2], the IC50 is below 5 µM.

For the molecule `O=C(NC1(CCOC(F)F)CCCC1)c1cnn2c1CN(C(=O)c1cc3ccccc3[nH]1)CC2` [Example 124, N-{1-[2-(difluoromethoxy)ethyl]cyclopentyl}-5-(1H-indole-2-carbonyl)-4H,5H,6H,7H-pyrazolo[1,5-a]pyrazine-3-carboxamide], the EC50 with HBV was below 1 µM. For the same molecule, the CC50 at 6 days in data set [1] is above 10 µM. The IC50 in data set [2] is below 5 µM.

Consider `O=C(NC1(CCOC(F)F)CCOCC1)c1cnn2c1CN(C(=O)c1cc3ccccc3[nH]1)CC2` [Example 125, N-{4-[2-(difluoromethoxy)ethyl]oxan-4-yl}-5-(1H-indole-2-carbonyl)-4H,5H,6H,7H-pyrazolo[1,5-a]pyrazine-3-carboxamide], for which, in the data set on HBV, the EC50 was below 1 µM. For the same molecule, in data set [1], the CC50 at 6 days is above 10 µM. Also, the IC50 in data set [2] is below 5 µM.

Consider `CN(C(=O)c1cnn2c1CN(C(=O)c1cc3ccccc3[nH]1)CC2)C1(CCOC(F)F)CCC1` [Example 126, N-{1-[2-(difluoromethoxy)ethyl]cyclobutyl}-5-(1H-indole-2-carbonyl)-N-methyl-4H,5H,6H,7H-pyrazolo[1,5-a]pyrazine-3-carboxamide], for which the EC50 with HBV fell in the range of 1 to 10 µM. The molecule also yielded a CC50 at 6 days in data set [1] above 10 µM. Also, the IC50 in data set [2] was below 5 µM.

On to `CN(C(=O)c1cnn2c1CN(C(=O)c1cc3ccccc3[nH]1)CC2)C1(CCOC(F)F)CCCC1` [Example 127, N-{1-[2-(difluoromethoxy)ethyl]cyclopentyl}-5-(1H-indole-2-carbonyl)-N-methyl-4H,5H,6H,7H-pyrazolo[1,5-a]pyrazine-3-carboxamide], for which the EC50 in the data set on HBV was 1 to 10 µM. This molecule also displayed a CC50 at 6 days in data set [1] above 10 µM. The IC50 in data set [2] was below 5 µM.

In the case of `CN(C(=O)c1cnn2c1CN(C(=O)c1cc3ccccc3[nH]1)CC2)C1(CCOC(F)F)CCOCC1` [Example 128], in the data set with HBV, the EC50 lay in the range of 1 to 10 µM. The same molecule yielded a 50% cytotoxic concentration (CC50) at 6 days in data set [1] above 10 µM. In addition, the IC50 in data set [2] was below 5 µM.
